Measured values reported in publication PMC4684245, “Diversity of ABBA Prenyltransferases in Marine Streptomyces sp. CNQ-509: Promiscuous Enzymes for the Biosynthesis of Mixed Terpenoid Compounds” (PLoS ONE, 2015).

Tests used:
Test in all cases: HPLC-UV and LC-MS product detection
Assay type in all cases: biochemical
[1] = biological target: T1, CnqP6 (Streptomyces sp. CNQ-509, UniProt A0A0F7N6A5); details: […] °C, […] h
T1 construct: gene AA958_12635; full-length, 300 aa; N-terminal His8 tag (pHis8) kept; E. coli Rosetta2(DE3)pLysS

[2] = biological target: T2, CnqP3 (Streptomyces sp. CNQ-509, UniProt A0A0F7NDP3); details: […] °C, […] h
T2 construct: gene AA958_24325; full-length, 305 aa; N-terminal His8 tag (pHis8) kept; E. coli Rosetta2(DE3)pLysS

[3] = biological target: T3, CnqP4 (Streptomyces sp. CNQ-509, UniProt A0A0F7NDN9); details: […] aromatic substrate, […] GPP, […] MgCl2, Tris-HCl pH […] °C, […] h
T3 construct: gene AA958_24270; full-length, 303 aa; N-terminal His8 tag (pHis8) kept; E. coli Rosetta2(DE3)pLysS

[4] = […] aromatic substrate, […] GPP, […] MgCl2, Tris-HCl pH […]

T2 sequence (A0A0F7NDP3 1-305): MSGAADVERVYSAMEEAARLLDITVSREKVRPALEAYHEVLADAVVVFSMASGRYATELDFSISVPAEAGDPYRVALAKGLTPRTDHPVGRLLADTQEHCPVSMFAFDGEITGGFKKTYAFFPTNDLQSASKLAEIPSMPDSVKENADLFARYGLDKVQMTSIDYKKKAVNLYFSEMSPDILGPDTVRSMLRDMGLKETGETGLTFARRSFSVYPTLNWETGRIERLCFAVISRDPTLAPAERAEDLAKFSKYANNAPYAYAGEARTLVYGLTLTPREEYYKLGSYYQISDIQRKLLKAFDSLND
T1 sequence (A0A0F7N6A5 1-300): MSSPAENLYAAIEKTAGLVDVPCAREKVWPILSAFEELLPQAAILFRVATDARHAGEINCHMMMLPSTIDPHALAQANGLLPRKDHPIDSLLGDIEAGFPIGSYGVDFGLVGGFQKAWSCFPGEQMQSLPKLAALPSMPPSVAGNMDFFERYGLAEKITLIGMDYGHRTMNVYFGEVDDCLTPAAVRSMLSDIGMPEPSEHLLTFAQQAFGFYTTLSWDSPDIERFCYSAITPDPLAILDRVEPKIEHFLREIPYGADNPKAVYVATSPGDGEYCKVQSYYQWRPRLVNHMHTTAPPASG
T3 sequence (A0A0F7NDN9 1-303): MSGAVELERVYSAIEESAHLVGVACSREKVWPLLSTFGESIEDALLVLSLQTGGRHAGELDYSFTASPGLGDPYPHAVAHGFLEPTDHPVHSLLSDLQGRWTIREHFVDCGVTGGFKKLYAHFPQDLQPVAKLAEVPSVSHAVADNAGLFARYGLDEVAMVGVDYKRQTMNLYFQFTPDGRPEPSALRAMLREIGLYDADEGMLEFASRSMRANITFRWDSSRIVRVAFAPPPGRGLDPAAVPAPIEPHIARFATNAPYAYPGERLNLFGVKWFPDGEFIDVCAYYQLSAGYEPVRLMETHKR

**Q.** With O=c1c(-c2ccc(O)cc2)coc2cc(O)cc(O)c12 [genistein] as the compound, how does the “HPLC-UV and LC-MS product detection” value [1, 4] read?
**A.** genistein was converted with GPP by the prenyltransferases CnqP2, CnqP3 and CnqP6

**Q.** Which results are given for CC(C)=CCC/C(C)=C/COP(=O)(O)OP(=O)(O)O [GPP]?
**A.** HPLC-UV and LC-MS product detection ([1]; with genistein ([…]), […] GPP, […] MgCl2, Tris-HCl pH […]): genistein was converted with GPP by the prenyltransferases CnqP2, CnqP3 and CnqP6; HPLC-UV and LC-MS product detection ([2]; with flaviolin ([…]), […] GPP, […] MgCl2, Tris-HCl pH […]): Incubation with GPP resulted in the production of a new compound

**Q.** Which “HPLC-UV and LC-MS product detection” value [2, 4] does the source give for O=C1C(O)=CC(=O)c2c(O)cc(O)cc21 [flaviolin] here?
**A.** Only CnqP3 accepted flaviolin as a substrate.

**Q.** With Oc1ccc2ccc(O)cc2c1 [2,7-DHN] as the compound, how does the “HPLC-UV and LC-MS product detection” value [3] read?
**A.** we found monogeranylated products for CnqP2, CnqP3 and CnqP4
